Measurements reported in patent US6525057B2, “Sustained release ranolazine formulations” (CV Therapeutics, Inc., priority 1998, dated 2003).
Like-named read-outs stand apart in the source and are kept apart here. One block for each compound: values may come before it.

Experiments:
[1] = Solubility of ranolazine in aqueous solutions by pH; assay type: physicochemical
[2] = test system: patients with chronic stable angina pectoris; experiment: Example 4: exercise treadmill test (ETT) at peak and trough, IR regimens; assay type: in vivo, human; conditions: Peak, all patients, 267 mg tid IR ranolazine .2HCl
Experimental: In this Example, the safety and anti-ischemic effects of high plasma ranolazine levels in a large group of angina patients was evaluated and the duration of any effects during steady-state dosing with bid and tid regimens was assessed. In this Example, patients with chronic stable angina pectoris who were responsive to conventional antianginal drugs were treated with 3 ranolazine .2HCl dosing regimens: 267 mg tid, 400 mg bid and 400 mg tid IR Formulations of Example 1. Exercise testing parameters and ranolazine free base concentrations were determined at peak and trough plasma levels.
The study involved double-blind, placebo-controlled randomized treatment phase with 4 treatments (placebo, ranolazine .2HCl 400 mg bid, ranolazine .2HCl 267 mg tid, and ranolazine .2HCl 400 mg tid), 4 treatment sequences and 5 double-blind treatment periods in an extended period Latin square design on pre-qualified patients who were responsive to known antianginal therapy and had stable exercise times.
Human patients with chronic stable angina pectoris, of at least 3 months' duration, that had responded to conventional antianginal therapy were considered candidates. […]

[3] = test system: patients with chronic stable angina pectoris; experiment: Example 4: safety, hemodynamics and tolerability; assay type: in vivo, human
Experimental: After each 1 week period, patients returned to the exercise laboratory in the morning, at least 1 hour after a light breakfast, for an ETT. This was designated the trough ETT; the trough ETTs were performed at the same time of day for each patient. After completing the trough ETT, the patient received the next scheduled blinded medication dose from the blister pack used that week. Another ETT was performed 1 hour after the administered dose. This was designated the peak ETT. Blood samples were obtained at trough (approximately 8 hours after dosing) and at peak (1 hour after dosing). Other standard laboratory tests were monitored regularly throughout the study.
Blood pressure (by cuff) and heart rate were monitored before all ETTs, during the ETT, during the last minute of each stage of the test, at onset angina, at the point of maximum exercise, and during recovery (every minute for 4 minutes, then every 5 minutes until values returned to baseline). Heart rates also was monitored continuously and standard 12-lead ECG recordings were done immediately before exercise with the patient standing on the treadmill, at the end of each stage of exercise, at the maximally tolerated exercise load, and at the termination of exercise.

[4] = Example 8: Day 5 pharmacokinetics of racemic ranolazine and enantiomers, SR 1500 and 2000 mg bid; assay type: in vivo, human; conditions: for Tmax / Cmax / AUC: male, human, plasma, oral; for AUC: read-out: AUC96-108h; for differences in the pharmacokinetic parameters of the enantiomers: multiple dosing with the SR formulation
Experimental: This Example evaluated the safety and tolerability of administering racemic ranolazine free base formulations as in Example 2D. The individual and mean concentrations of racemic ranolazine and its enantiomers, (R)-(+)-N-(2,6-dimethylphenyl)-4-[2-hydroxy-3-(2-methoxyphenoxy)-propyl]-1-piperazineacetamide, (S)-(−)-N-(2,6-dimethylphenyl)-4-[2-hydroxy-3-(2-methoxyphenoxy)-propyl]-1-piperazineacetamide in human plasma were also determined.
(§1) The study was performed with ascending doses of sustained release ranolazine dosage forms. Before and at intervals during and after the dosing period, blood samples were drawn for ranolazine assay and blood pressure, heart rate, ECG and symptoms were monitored throughout. Data summaries were reviewed after each phase before proceeding to the next phase of the study.
(§2) Eight subjects, all healthy male volunteers aged between 18 and 40 entered and all completed the study and were available for pharmacokinetic and safety analysis. The subjects were each given doses of the various types of ranolazine free base in the form of sustained release tablets including 500 mg and 750 mg tablets or with matching placebo as necessary (2×750 mg size plus 1×500 mg size) to make unit oral doses of 1500 and 2000 mg.
(§3) In each phase: one dose bid for four days with a single dose on Day 5. On day 5 each volunteer underwent a full pharmacokinetic profile including supine and erect blood pressure (BP) and heart rate, ECG data, adverse events, clinical chemistry and hematology results, urinalysis results.
(§4) These tests were made using two-sided t-tests with estimates of variability from the ANOVA models. Steady state was also assessed by comparing means for C48h, C72h and C96h using a mixed effects ANOVA model and untransformed and log, transformed data. For hemodynamic parameters, Day 1 pre-dose treatment means and Day 5 data were compared across treatments via two-sided t-tests using estimates of variability from mixed effects ANOVA models. Ninety and 95% confidence intervals were calculated for the treatment comparisons. No adjustments were made for multiple comparisons.

[5] = test system: healthy male volunteers; experiment: Example 8: safety and tolerability of SR 1500 and 2000 mg bid; assay type: in vivo, human; conditions: for subjects too symptomatic on standing to complete BP measurements: usually 2-6 hours post-dose; for reduction in orthostatic systolic BP: statistically significant
Experimental: as §1, §2, §3, §4

[6] = test system: patients with stable angina pectoris; conditions: cited from earlier work; for increase in total exercise duration (±SEM) compared with baseline: after 4 weeks, 1 hour after medication (peak effect), P=NS vs placebo
[7] = cited from earlier work; for mean peak plasma concentration of ranolazine free base: 1 hour after dose; for mean trough plasma concentration: 8 hours after dose
[8] = Day 5, 1500 mg SR bid (racemic, Example 2D)
[9] = Day 5, 2000 mg SR bid (racemic, Example 2D)
[10] = 1500 mg, Day 5, 1500 mg SR bid (racemic, Example 2D), read-out: Median tmax

- USP Solubility Class ([1]; Solution pH 4.81): Freely soluble
- USP Solubility Class ([1]; Solution pH 4.89): Soluble
- USP Solubility Class ([1]; Solution pH 4.90): Soluble
- USP Solubility Class ([1]; Solution pH 5.04): Soluble
- USP Solubility Class ([1]; Solution pH 5.35): Sparingly soluble
- USP Solubility Class ([1]; Solution pH 5.82): Slightly soluble
- USP Solubility Class ([1]; Solution pH 6.46): Slightly soluble
- USP Solubility Class ([1]; Solution pH 6.73): Very slightly soluble
- USP Solubility Class ([1]; Solution pH 7.08): Very slightly soluble
- USP Solubility Class ([1]; Solution pH 7.59 (unbuffered water)): Very slightly soluble
- USP Solubility Class ([1]; Solution pH 7.73): Very slightly soluble
- USP Solubility Class ([1]; Solution pH 12.66): Very slightly soluble
- Cave [4, 8]: 4126 ± 1995 ng/mL
- Cmin [4, 8]: 2932 ± 1918 ng/mL
- Degree of fluctuation [4, 8]: 0.664
- Cave [4, 9]: 5705 ± 2153 ng/mL
- Cmin [4, 9]: 4149 ± 2228 ng/mL
- Degree of fluctuation [4, 9]: 0.591
- Steady-state plasma levels of ranolazine free base attained by ([4]; SR bid dosing): ≤ 4 days
- Tmax [4, 10]: 4 h
- Tmax ([4]; 2000 mg, Day 5, 2000 mg SR bid (racemic, Example 2D), read-out: Median tmax): 4 h
- Tmax ([4]; 2000 mg, within the dose interval, SR 1500 and 2000 mg bid, read-out: tmax values post-dose): 1 to 6 h
- Cmax [4, 8]: 5280 ± 2430 ng/mL
- AUC [4, 8]: 49500 ng·h/mL
- Cmax [4, 9]: 7280 ± 2700 ng/mL
- AUC [4, 9]: 68500 ng·h/mL
Structure (SMILES): COc1ccccc1OCC(O)CN1CCN(CC(=O)Nc2c(C)cccc2C)CC1 (racemic) [ranolazine, (±)-N-(2,6-dimethylphenyl)-4-[2-hydroxy-3-(2-methoxyphenoxy)-propyl]-1-piperazineacetamide]
- Mean time to onset angina [2]: 9.40 min
- ECG intervals or complex morphology ([3]; 3 IR dosing regimens): no drug-related changes
- blood glucose concentrations, lipid values or liver function tests ([3]; 3 IR dosing regimens): no clinically significant changes
- tolerability ([3]; over the plasma concentrations achieved in the study): well tolerated
- blood pressure or heart rate ([3]; peak ranolazine plasma concentrations): not associated with changes in blood pressure or heart rate
- double product versus placebo ([3]; peak ranolazine plasma concentrations, any dosing regimen): no statistically significant differences
- standing or maximum exercise double product versus placebo ([3]; trough ranolazine plasma concentrations, per-protocol analysis, 3 dosing regimens): no statistically significant differences
- subjects too symptomatic on standing to complete BP measurements ([5]; 1500 mg SR bid): 3 of 8
- subjects too symptomatic on standing to complete BP measurements ([5]; 2000 mg SR bid): 2 of 8
- adverse events ([5]; SR 1500 and 2000 mg bid versus placebo): headache, dizziness and blocked nose seemed more common on ranolazine
- reduction in orthostatic systolic BP ([5]; day 5, 1500 mg SR bid, 4 hours post-dose): −9.8 mm Hg
- reduction in orthostatic systolic BP ([5]; day 5, 2000 mg SR bid, 6 hours post-dose): −8.4 mmHg
- increase in total exercise duration (±SEM) compared with baseline ([6]; 30 mg tid): 0.3 ± 0.2 min
- increase in total exercise duration (±SEM) compared with baseline ([6]; 60 mg tid): 0.6 ± 0.2 min
- increase in total exercise duration (±SEM) compared with baseline ([6]; 120 mg tid): 0.5 ± 0.2 min

- Cave [4, 8]: 2144 ± 1115 ng/mL
- Cmin [4, 8]: 1436 ± 1046 ng/mL
- Degree of fluctuation [4, 8]: 0.833
- Tmax [4, 10]: 4 h
- Cmax [4, 8]: 2910 ± 1310 ng/mL
- AUC [4, 8]: 25700 ng·h/mL
- differences in the pharmacokinetic parameters of the enantiomers [4]: no differences
Structure (SMILES): COc1ccccc1OC[C@H](O)CN1CCN(CC(=O)Nc2c(C)cccc2C)CC1 [(+)R ranolazine, (R)-(+)-N-(2,6-dimethylphenyl)-4-[2-hydroxy-3-(2-methoxyphenoxy)-propyl]-1-piperazineacetamide]

- Cave [4, 8]: 2201 ± 1237 ng/mL
- Cmin [4, 8]: 1514 ± 1201 ng/mL
- Degree of fluctuation [4, 8]: 0.824
- Tmax [4, 10]: 4 h
- Cmax [4, 8]: 2940 ± 1430 ng/mL
- AUC [4, 8]: 26400 ng·h/mL
- differences in the pharmacokinetic parameters of the enantiomers [4]: no differences
Structure (SMILES): COc1ccccc1OC[C@@H](O)CN1CCN(CC(=O)Nc2c(C)cccc2C)CC1 [(−)S ranolazine, (S)-(−)-N-(2,6-dimethylphenyl)-4-[2-hydroxy-3-(2-methoxyphenoxy)-propyl]-1-piperazineacetamide]

Structure (SMILES): COc1ccccc1OCC(O)CN1CCN(CC(=O)Nc2c(C)cccc2C)CC1 (centres unmarked) [ranolazine .2HCl]
- mean peak plasma concentration of ranolazine free base ([7]; 30 mg tid IR): 94 ng/mL
- mean trough plasma concentration ([7]; 30 mg tid IR): 18 ng/mL
- mean peak plasma concentration of ranolazine free base ([7]; 60 mg tid IR): 219 ng/mL
- mean trough plasma concentration ([7]; 60 mg tid IR): 37 ng/mL
- mean peak plasma concentration of ranolazine free base ([7]; 120 mg tid IR): 510 ng/mL
- mean trough plasma concentration ([7]; 120 mg tid IR): 90 ng/mL
- therapy compared with placebo ([6]; 30, 60 and 120 mg tid): not superior to placebo
